biological target: Vascular endothelial growth factor receptor 2 (Homo sapiens, UniProt P35968); assay: LANCE TR-FRET Assay
Protocol: VEGFR-2 Kinase: The assay is based on the LANCE TR-FRET technology of Perkin Elmer Inc., and the assay method is as follows:1. Dilution of compounds: a total of 11 concentrations were obtained using a 3-fold gradient dilution from the highest concentration of 2500 nM (the maximum final concentration of the drug used in this assay was 2500 nM, and the minimum final concentration was 0.042 nM).2. 2.5 μL of the gradient-diluted compounds were taken with a transfer pipette to a 384-well plate.3. Addition of enzyme: 5 μL of 2×VEGFR2 kinase solution (with a concentration of 0.5 nM) was taken with a transfer pipette to the corresponding reaction well of the 384-well plate, mixed well and pre-reacted at room temperature for 30 minutes.4. 2.5 μL 4× Ultra ULight™-JAK-1 (Tyr1023) Peptide (with a concentration of 200 nM)/ATP (with a concentration of 40 μM) mixture was taken with a transfer pipette to the corresponding reaction well of the 384-well plate.5. Negative control: 2.5 μL/well 4× substrate/ATP mixture and 7.5 μL 1× Kinase Assay Buffer were added to the wells of the 384-well plate.6. Positive control: 2.5 μL/well 4× substrate/ATP mixture, 2.5 μL/well 1× Kinase Assay Buffer containing 16% DMSO, and 5 μL/well 2×VEGFR-2 kinase solution were added to the 384-well plate. […] The 384-well plate was placed into the Envision plate reader and the signal was detected using the appropriate program.11. […]

Chain of Vascular endothelial growth factor receptor 2 (P35968 whole entry): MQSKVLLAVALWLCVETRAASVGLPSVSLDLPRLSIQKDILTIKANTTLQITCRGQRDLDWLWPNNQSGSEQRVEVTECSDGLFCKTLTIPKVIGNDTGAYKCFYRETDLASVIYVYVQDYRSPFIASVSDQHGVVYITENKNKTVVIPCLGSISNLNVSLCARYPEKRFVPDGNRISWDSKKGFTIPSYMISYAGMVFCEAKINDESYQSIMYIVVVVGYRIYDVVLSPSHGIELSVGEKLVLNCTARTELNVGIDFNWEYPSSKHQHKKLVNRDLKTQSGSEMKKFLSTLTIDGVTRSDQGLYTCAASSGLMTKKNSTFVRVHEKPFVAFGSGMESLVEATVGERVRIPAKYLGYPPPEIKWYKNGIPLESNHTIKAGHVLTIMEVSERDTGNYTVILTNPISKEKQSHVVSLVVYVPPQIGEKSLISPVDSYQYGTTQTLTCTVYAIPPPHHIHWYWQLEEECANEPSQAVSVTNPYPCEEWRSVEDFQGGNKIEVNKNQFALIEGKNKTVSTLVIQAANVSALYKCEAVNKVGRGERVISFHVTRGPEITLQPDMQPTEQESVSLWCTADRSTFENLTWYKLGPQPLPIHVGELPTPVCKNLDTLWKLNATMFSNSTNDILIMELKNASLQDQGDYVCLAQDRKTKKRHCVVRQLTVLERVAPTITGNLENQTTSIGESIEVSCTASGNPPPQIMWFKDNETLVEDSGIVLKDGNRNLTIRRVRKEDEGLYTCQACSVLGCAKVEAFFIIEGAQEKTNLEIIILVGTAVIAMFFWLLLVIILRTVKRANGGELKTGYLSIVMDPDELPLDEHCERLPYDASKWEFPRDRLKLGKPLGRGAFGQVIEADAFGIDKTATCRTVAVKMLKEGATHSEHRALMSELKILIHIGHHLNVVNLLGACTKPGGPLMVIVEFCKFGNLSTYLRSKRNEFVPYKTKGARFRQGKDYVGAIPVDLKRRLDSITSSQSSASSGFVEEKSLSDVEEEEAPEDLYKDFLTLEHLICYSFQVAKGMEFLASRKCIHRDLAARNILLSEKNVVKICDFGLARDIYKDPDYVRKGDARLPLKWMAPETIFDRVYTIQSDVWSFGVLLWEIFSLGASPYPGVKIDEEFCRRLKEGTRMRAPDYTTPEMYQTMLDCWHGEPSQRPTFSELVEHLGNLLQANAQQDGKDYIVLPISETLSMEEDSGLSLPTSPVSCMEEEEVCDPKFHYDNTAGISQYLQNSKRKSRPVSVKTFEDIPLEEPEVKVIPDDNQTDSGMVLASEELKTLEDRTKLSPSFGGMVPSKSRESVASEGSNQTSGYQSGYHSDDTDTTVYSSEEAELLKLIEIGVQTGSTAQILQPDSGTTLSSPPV

IC50 [µM]	SMILES
< 0.05	CCOc1ccn(-c2ccc(F)cc2)c(=O)c1C(=O)Nc1ccc(Oc2ccnc3cc(OCCCCCCN(C)C)c4c(c23)OCCO4)c(F)c1 [US12202835, Example 60]
< 0.05	CCOc1ccn(-c2ccc(F)cc2)c(=O)c1C(=O)Nc1ccc(Oc2ccnc3cc(OCCCN(C)C)c4c(c23)OCCO4)c(F)c1 [US12202835, Example 61]

biological target: High affinity nerve growth factor receptor (Homo sapiens, UniProt P04629); assay: LANCE TR-FRET Assay
Sequence (P04629 whole entry): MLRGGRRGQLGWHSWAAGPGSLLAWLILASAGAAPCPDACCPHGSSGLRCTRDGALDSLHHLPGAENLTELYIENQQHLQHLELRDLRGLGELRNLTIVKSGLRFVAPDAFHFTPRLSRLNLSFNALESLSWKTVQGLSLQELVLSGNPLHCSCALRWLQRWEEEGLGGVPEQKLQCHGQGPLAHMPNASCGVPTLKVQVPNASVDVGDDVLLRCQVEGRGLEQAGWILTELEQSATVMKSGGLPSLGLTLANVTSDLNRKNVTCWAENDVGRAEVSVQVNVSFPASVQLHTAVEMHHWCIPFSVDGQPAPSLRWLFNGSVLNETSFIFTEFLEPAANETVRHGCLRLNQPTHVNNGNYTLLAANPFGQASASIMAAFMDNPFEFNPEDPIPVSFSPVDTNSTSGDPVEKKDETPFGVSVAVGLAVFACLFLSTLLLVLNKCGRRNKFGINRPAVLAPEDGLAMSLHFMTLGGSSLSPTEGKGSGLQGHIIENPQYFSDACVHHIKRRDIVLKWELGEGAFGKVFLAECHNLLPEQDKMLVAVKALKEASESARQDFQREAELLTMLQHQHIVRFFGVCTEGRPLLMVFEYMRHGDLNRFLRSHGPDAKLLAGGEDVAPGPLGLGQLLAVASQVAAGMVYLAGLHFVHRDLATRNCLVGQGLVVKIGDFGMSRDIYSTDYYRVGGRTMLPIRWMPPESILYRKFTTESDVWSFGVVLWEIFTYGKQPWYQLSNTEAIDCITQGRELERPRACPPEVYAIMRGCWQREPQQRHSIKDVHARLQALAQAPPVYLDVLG
Protocol: TRKA Kinase: The assay of small molecular compounds for inhibiting the activity of TRKA kinase is based on the LANCE TR-FRET technology of Perkin Elmer Inc., and the assay method is as follows:1. […] 2.5 μL of the gradient-diluted compounds were taken with a transfer pipette to a 384-well plate.3. Addition of enzyme: 5 μL of 2×TRKA kinase solution (with a concentration of 2 nM) was taken with a transfer pipette to the corresponding reaction well of the 384-well plate, mixed well and pre-reacted at room temperature for 5 minutes.4. 2.5 μL 4× Ultra ULight-labeled TK Peptide (with a concentration of 400 nM)/ATP (with a concentration of 40 μM) mixture was taken with a transfer pipette to the corresponding reaction well of the 384-well plate.5. Negative control: 2.5 μL/well 4× substrate/ATP mixture and 7.5 μL 1× Kinase Assay Buffer were added to the wells of the 384-well plate.Positive control: 2.5 μL/well 4× substrate/ATP mixture, 2.5 μL/well 1× Kinase Assay Buffer containing 4% DMSO, and 5 μL/well 2×TRKA kinase solution were added to the 384-well plate. The final concentration of DMSO in the reaction system was 1%.6. The mixture was mixed well and then centrifuged and reacted at room temperature in dark for 60 min.7. Termination of the enzymatic reaction: 5 μL of 4× stop solution was taken with a transfer pipette to the wells of the 384-well plate, mixed and then centrifuged, and reacted at room temperature for 5 min.8. Development of the reaction: 5 μL of 4× detection solution was taken with a transfer pipette to the wells of the 384-well plate for color development, and the mixture was mixed and then centrifuged and reacted at room temperature for 60 min.9. The 384-well plate was placed into the Envision plate reader and the signal was detected using the appropriate program.10.

IC50 [µM]	SMILES
< 0.05	CCOc1ccn(-c2ccc(F)cc2)c(=O)c1C(=O)Nc1ccc(Oc2ccnc3cc(OCCCCCCN(C)C)c4c(c23)OCCO4)c(F)c1 [US12202835, Example 60]
< 0.05	CCOc1ccn(-c2ccc(F)cc2)c(=O)c1C(=O)Nc1ccc(Oc2ccnc3cc(OCCCN(C)C)c4c(c23)OCCO4)c(F)c1 [US12202835, Example 61]
< 0.05	CC(C)n1cc(C(=O)Nc2ccc(Oc3ccnc4cc(OCCCCCCN(C)C)c5c(c34)OCCO5)c(F)c2)c(=O)n(-c2ccc(F)cc2)c1=O [US12202835, Example 85]
< 0.05	CN(C)CCCOc1cc2nccc(Oc3ccc(NC(=O)c4cn(C)c(=O)n(-c5ccc(F)cc5)c4=O)cc3F)c2c2c1OCCO2 [US12202835, Example 86]

biological target: Hepatocyte growth factor receptor (Homo sapiens, UniProt P08581); assay: LANCE TR-FRET Assay
Sequence (P08581 whole entry): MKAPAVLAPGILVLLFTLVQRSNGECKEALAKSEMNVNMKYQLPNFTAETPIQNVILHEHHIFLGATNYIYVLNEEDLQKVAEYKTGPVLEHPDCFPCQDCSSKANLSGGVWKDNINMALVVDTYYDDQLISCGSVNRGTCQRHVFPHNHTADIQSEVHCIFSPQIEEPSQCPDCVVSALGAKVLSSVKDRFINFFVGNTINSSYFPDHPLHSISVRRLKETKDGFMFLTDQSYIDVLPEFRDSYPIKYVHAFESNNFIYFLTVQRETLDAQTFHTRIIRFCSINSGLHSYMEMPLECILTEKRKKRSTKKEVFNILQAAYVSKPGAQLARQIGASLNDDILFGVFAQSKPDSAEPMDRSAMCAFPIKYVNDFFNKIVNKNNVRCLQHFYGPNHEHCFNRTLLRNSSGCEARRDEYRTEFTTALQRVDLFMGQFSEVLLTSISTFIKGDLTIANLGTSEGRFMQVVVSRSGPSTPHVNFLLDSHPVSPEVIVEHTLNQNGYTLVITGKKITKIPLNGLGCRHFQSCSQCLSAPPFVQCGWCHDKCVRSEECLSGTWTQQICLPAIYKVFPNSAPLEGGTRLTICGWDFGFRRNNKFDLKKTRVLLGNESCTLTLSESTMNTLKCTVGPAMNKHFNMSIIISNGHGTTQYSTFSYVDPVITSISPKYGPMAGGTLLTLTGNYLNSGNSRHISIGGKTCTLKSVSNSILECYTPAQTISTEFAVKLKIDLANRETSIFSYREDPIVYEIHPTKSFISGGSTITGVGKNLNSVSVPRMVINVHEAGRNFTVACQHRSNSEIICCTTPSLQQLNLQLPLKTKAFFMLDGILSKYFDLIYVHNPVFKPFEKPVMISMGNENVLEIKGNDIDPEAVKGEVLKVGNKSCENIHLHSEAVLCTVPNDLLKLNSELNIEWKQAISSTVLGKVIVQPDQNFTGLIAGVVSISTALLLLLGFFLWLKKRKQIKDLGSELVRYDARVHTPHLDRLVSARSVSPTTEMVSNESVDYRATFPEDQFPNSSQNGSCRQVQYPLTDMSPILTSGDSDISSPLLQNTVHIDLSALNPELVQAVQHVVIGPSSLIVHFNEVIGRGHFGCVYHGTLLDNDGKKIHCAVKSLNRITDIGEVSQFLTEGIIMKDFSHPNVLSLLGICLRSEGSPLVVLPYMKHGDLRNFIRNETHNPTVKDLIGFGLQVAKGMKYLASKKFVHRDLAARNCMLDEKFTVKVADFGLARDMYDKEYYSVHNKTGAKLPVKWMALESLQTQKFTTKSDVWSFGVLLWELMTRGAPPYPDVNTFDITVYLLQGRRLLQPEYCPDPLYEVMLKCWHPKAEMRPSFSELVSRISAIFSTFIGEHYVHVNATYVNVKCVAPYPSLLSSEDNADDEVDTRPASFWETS
Protocol: c-MET Kinase: The assay is based on the LANCE TR-FRET technology of Perkin Elmer Inc., and the assay method is as follows:1. Dilution of compounds: a total of 11 concentrations were obtained using a 3-fold gradient dilution from the highest concentration of 2500 nM (the maximum final concentration of the drug used in this assay was 2500 nM, and the minimum final concentration was 0.042 nM).2. 2.5 μL of the gradient-diluted compounds were taken with a transfer pipette to a 384-well plate.3. Addition of enzyme: 5 μL of 2×c-MET kinase solution (with a concentration of 2 nM) was taken with a transfer pipette to the corresponding reaction well of the 384-well plate, mixed well and pre-reacted at room temperature for 5 minutes.4. 2.5 μL 4× Ultra ULight™-JAK-1 (Tyr1023) Peptide (with a concentration of 400 nM)/ATP (with a concentration of 40 μM) mixture was taken with a transfer pipette to the corresponding reaction well of the 384-well plate.5. Negative control: 2.5 μL/well 4× substrate/ATP mixture and 7.5 μL 1× Kinase Assay Buffer were added to the wells of the 384-well plate.6. Positive control: 2.5 μL/well 4× substrate/ATP mixture, 2.5 μL/well 1× Kinase Assay Buffer containing 16% DMSO, and 5 μL/well 2× c-MET kinase solution were added to the 384-well plate. The final concentration of DMSO in the reaction system was 4%.7. The mixture was mixed well and then centrifuged and reacted at room temperature in dark for 60 min.8. Termination of the enzymatic reaction: 5 μL of 4× stop solution was taken with a transfer pipette to the wells of the 384-well plate, mixed and then centrifuged, and reacted at room temperature for 5 min.9. Development of the reaction: 5 μL of 4× detection solution was taken with a transfer pipette to the wells of the 384-well plate for color development, and the mixture was mixed and then centrifuged and reacted at room temperature for 60 min.10. The 384-well plate was placed into the Envision plate reader and the signal was detected using the appropriate program.11. Analysis and processing of the raw data:12. […]

IC50 [µM]	SMILES
< 0.05	CCOc1ccn(-c2ccc(F)cc2)c(=O)c1C(=O)Nc1ccc(Oc2ccnc3cc(OCCCCCCN(C)C)c4c(c23)OCCO4)c(F)c1 [US12202835, Example 60]
< 0.05	CCOc1ccn(-c2ccc(F)cc2)c(=O)c1C(=O)Nc1ccc(Oc2ccnc3cc(OCCCN(C)C)c4c(c23)OCCO4)c(F)c1 [US12202835, Example 61]
< 0.05	CN(C)CCCOc1cc2nccc(Oc3ccc(NC(=O)c4cn(C)c(=O)n(-c5ccc(F)cc5)c4=O)cc3F)c2c2c1OCCO2 [US12202835, Example 86]

biological target: T1, Tyrosine-protein kinase Mer (Homo sapiens, UniProt Q12866); assay: LANCE TR-FRET Assay
T1 sequence (Q12866 whole entry): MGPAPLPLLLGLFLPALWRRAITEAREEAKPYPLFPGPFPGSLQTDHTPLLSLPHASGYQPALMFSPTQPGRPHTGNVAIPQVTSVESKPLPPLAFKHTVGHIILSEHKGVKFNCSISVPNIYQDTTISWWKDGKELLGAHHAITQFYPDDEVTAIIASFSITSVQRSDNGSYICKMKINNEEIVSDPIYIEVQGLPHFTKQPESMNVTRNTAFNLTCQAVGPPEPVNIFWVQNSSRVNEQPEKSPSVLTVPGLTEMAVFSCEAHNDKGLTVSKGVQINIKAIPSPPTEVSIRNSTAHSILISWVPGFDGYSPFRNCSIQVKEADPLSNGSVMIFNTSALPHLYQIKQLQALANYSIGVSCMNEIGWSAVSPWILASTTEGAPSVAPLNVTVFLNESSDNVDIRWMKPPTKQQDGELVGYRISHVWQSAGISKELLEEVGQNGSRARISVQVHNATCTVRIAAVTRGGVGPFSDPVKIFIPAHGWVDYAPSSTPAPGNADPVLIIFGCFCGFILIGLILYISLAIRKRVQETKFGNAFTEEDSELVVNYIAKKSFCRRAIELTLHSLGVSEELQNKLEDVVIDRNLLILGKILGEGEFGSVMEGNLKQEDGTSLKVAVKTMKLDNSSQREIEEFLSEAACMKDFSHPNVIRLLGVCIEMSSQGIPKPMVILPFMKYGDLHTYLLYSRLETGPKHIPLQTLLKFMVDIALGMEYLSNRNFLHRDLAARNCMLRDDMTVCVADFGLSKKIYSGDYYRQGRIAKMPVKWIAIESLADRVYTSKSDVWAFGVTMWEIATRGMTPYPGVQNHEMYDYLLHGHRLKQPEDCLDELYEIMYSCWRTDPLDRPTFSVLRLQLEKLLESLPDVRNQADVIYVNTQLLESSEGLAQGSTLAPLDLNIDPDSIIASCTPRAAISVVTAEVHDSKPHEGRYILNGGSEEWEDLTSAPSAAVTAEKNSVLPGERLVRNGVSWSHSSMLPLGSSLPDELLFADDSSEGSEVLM
Protocol: MER Kinase: The assay of small molecular compounds for inhibiting the activity of MER kinase is based on the LANCE TR-FRET technology of Perkin Elmer Inc., and the assay method is as follows:1. Dilution of compounds: a total of 11 concentrations were obtained using a 3-fold gradient dilution from the highest concentration of 2500 nM (the maximum final concentration of the drug used in this assay was 2500 nM, and the minimum final concentration was 0.042 nM).2. 2.5 μL of the gradient-diluted compounds were taken with a transfer pipette to a 384-well plate.3. Addition of enzyme: 5 μL of 2×MER kinase solution (with a concentration of 1 nM) was taken with a transfer pipette to the corresponding reaction well of the 384-well plate, mixed well and pre-reacted at room temperature for 5 minutes.4. 2.5 μL 4× ULight-labeled Ploy GT (with a concentration of 200 nM)/ATP (with a concentration of 20 μM) mixture was taken with a transfer pipette to the corresponding reaction well of the 384-well plate.5. Negative control: 2.5 μL/well 4× substrate/ATP mixture and 7.5 μL 1× Kinase Assay Buffer were added to the wells of the 384-well plate.Positive control: 2.5 μL/well 4× substrate/ATP mixture, 2.5 μL/well 1× Kinase Assay Buffer containing 4% DMSO, and 5 μL/well 2×MER kinase solution were added to the 384-well plate. The final concentration of DMSO in the reaction system was 1%.6. The mixture was mixed well and then centrifuged and reacted at room temperature in dark for 60 min.7. Termination of the enzymatic reaction: 5 μL of 4× stop solution was taken with a transfer pipette to the wells of the 384-well plate, mixed and then centrifuged, and reacted at room temperature for 5 min.8. Development of the reaction: 5 μL of 4× detection solution was taken with a transfer pipette to the wells of the 384-well plate for color development, and the mixture was mixed and then centrifuged and reacted at room temperature for 60 min.9. The 384-well plate was placed into the Envision plate reader and the signal was detected using the appropriate program.10. Analysis and processing of the raw data:The drug concentrations and the corresponding inhibition rates were input into GraphPad Prism5 for calculation, and the inhibition rate of the compounds were calculated as follows: inhibition rate (%)=(reading of positive well−reading of experimental well)/(reading of positive control well−reading of negative control well)×100%.

IC50 [µM]	SMILES
< 0.05	CCOc1ccn(-c2ccc(F)cc2)c(=O)c1C(=O)Nc1ccc(Oc2ccnc3cc(OCCCCCCN(C)C)c4c(c23)OCCO4)c(F)c1 [US12202835, Example 60]
< 0.05	CCOc1ccn(-c2ccc(F)cc2)c(=O)c1C(=O)Nc1ccc(Oc2ccnc3cc(OCCCN(C)C)c4c(c23)OCCO4)c(F)c1 [US12202835, Example 61]
< 0.05	CC(C)n1cc(C(=O)Nc2ccc(Oc3ccnc4cc(OCCCCCCN(C)C)c5c(c34)OCCO5)c(F)c2)c(=O)n(-c2ccc(F)cc2)c1=O [US12202835, Example 85]
< 0.05	CN(C)CCCOc1cc2nccc(Oc3ccc(NC(=O)c4cn(C)c(=O)n(-c5ccc(F)cc5)c4=O)cc3F)c2c2c1OCCO2 [US12202835, Example 86]
